Experimental data published in US20110053933A1, “HYDROXYQUINOXALINECARBOXAMIDE DERIVATIVE” (DAIICHI SANKYO COMPANY, LIMITED, priority 2008, published 2011).

Each compound was assayed on γ-glutamyl carboxylation reaction (human Gas6 in Gas6-HEK293 cells) (assay: Inhibitory action on γ-glutamyl carboxylation reaction (secreted γ-glutamyl carboxylated Gas6 by ELISA)). Conditions: vitamin K2 100 nM, exposure 18 to 20 hours, ELISA absorbance at 620 nm, read-out: IC50 (50% inhibitory concentration for the γ-glutamyl carboxylation reaction).
Assay type: cell-based
Method: Measurement of Inhibitory Action on γ-Glutamyl Carboxylation Reaction
Cells were used that expressed Gas6 excreted outside the cells when subjected to γ-glutamyl carboxylation, and inhibitory action on γ-glutamyl carboxylation reaction was assessed by measuring the secreted amount of extracellular Gas6 by ELISA method.
(A) Preparation for Assay Plate Containing Solid-Phase Anti-Human Gas6 Antibody
Goat anti-human Gas6 antibody (R&D Systems, Inc.) was diluted to 1 μg/ml with Dulbecco's phosphate-buffered saline, and 40 μl aliquots thereof were dispensed into each well of a 384-well microplate. After immobilizing the antibody to the solid phase by allowing it to stand at 4° C. overnight or at room temperature for 2 hours or more, each well was washed three times with wash buffer (10 mM Tris-HCl pH 7.4, 150 mM sodium chloride, 0.05% Tween20). After removing the supernatant, 80 μl aliquots of a 1% aqueous solution of Block Ace (Dainippon Sumitomo Pharma) were dispensed into each well and allowed to react at room temperature for 1 hour or more.
(B) Exposure of Test Compounds to Cells Stably Expressing Human Gas6
Cells that stably express human Gas6 (Gas6-HEK293), which were prepared by inserting human Gas6 gene (inserted between SalI and NotI within multiple cloning sites of pCIneo expression vector) into HEK293 cells, were grown and sub-cultured using Dulbecco's modified Eagle's medium (DMEM) containing 10% fetal calf serum (FCS). On the day before ELISA measurement, the Gas6-HEK293 cells were detached with trypsin-EDTA, dispersed in DMEM containing 10% FCS, and disseminated into each well of a 384-well, collagen type I-coated plate (Becton-Dickinson) in 30 μl aliquots containing 1.0×10^4 cells each, followed by culturing for 3 to 4 hours at 5% CO2 and 37° C. 30 μl aliquots of DMEM containing test compound solutions, prepared at various concentrations by dissolving in DMSO, and vitamin K2 at 0.1% and 100 nM, respectively (indicating final concentrations in both cases) were added to each well followed by additionally culturing for 18 to 20 hours.
(C) Quantification of γ-Glutamyl Carboxylated Gas6 by ELISA and Calculation of 50% Inhibitory Concentrations of γ-Glutamyl Carboxylation Reaction
After removing the 1% Block Ace aqueous solution from the preliminarily prepared assay plates containing solid phase anti-human Gas6 antibody, the culture supernatant of Gas6-HEK293 cells exposed to the test compounds was collected and 40 μl aliquots were dispensed into each well followed by allowing to react at room temperature for 2 hours (Step 1). The culture supernatant was removed and each well was washed three times with wash buffer. Thereafter, the same washing procedure was carried out between Steps 2 and 3 and Steps 3 and 4. Subsequently, 40 μl aliquots of mouse anti-human […] antibody (American Diagnostica inc.), adjusted to 0.5 μg/ml with immunoreaction buffer (100 mM Tris-HCl pH 7.4, 0.05% Tween20, 0.1% Block Ace), were dispensed into each well and allowed to react at room temperature for 1 hour (Step 2). Next, 40 μl aliquots of alkaline phosphatase-conjugated anti-mouse IgG antibody adjusted to 1.0 μg/ml with immunoreaction buffer were dispensed into each well and allowed to react at room temperature for 1 hour (Step 3). 40 μl aliquots of BluePhos Microwell (KPL) were dispensed into each well, and after incubating at room temperature for 10 minutes (Step 4), 20 μl aliquots of 5% EDTA were added to each well to stop the color development reaction, followed by measurement of absorbance at 620 nm (Step 5). […]

In order of falling IC50:
1. CC(C)[C@H](NC(=O)c1nc2ccccc2nc1O)C(=O)N1CCC(Oc2ncc(Br)cn2)CC1 [Example 65, N-[(1S)-1-({4-[(5-Bromopyrimidin-2-yl)oxy]piperidin-1-yl}carbonyl)-2-methylpropyl]-3-hydroxyquinoxaline-2-carboxamide]  20 nM
2. CC(C)[C@H](NC(=O)c1nc2ccccc2nc1O)C(=O)N1CCC(Oc2ccc(C(F)(F)F)nn2)CC1 [Example 100, 3-Hydroxy-N-{(1S)-2-methyl-1-[(4-{[6-(trifluoromethyl)pyridazin-3-yl]oxy}piperidin-1-yl)carbonyl]propyl}quinoxaline-2-carboxamide]  10.4 nM
3. CC(C)[C@H](NC(=O)c1nc2ccccc2nc1O)C(=O)N1CCC(Oc2ncc(N3CCCCC3)cn2)CC1 [Example 96, 3-Hydroxy-N-[(1S)-2-methyl-1-({4-[(5-piperidin-1-ylpyrimidin-2-yl)oxy]piperidin-1-yl}carbonyl)propyl]quinoxaline-2-carboxamide]  9.6 nM
4. CC(C)[C@H](NC(=O)c1nc2ccccc2nc1O)C(=O)N1CCC(Oc2ncc(-c3ccccc3)cn2)CC1 [Example 80, 3-Hydroxy-N-[(1S)-2-methyl-1-({4-[(5-phenylpyrimidin-2-yl)oxy]piperidin-1-yl}carbonyl)propyl]quinoxaline-2-carboxamide]  7.1 nM
5. CC(C)[C@H](NC(=O)c1nc2ccc(F)cc2nc1O)C(=O)N1CCC(Oc2ccc(F)cc2)CC1 [Example 74, N-[(1S)-1-{[4-(4-Fluorophenoxy)piperidin-1-yl]carbonyl}-2-methylpropyl]-6-fluoro-3-hydroxyquinoxaline-2-carboxamide]  5.5 nM
6. CC(C)[C@H](NC(=O)c1nc2ccccc2nc1O)C(=O)N1CCC(Oc2ccc(C(F)(F)F)nc2)CC1 [Example 84, 3-Hydroxy-N-{(1S)-2-methyl-1-[(4-{[6-(trifluoromethyl)pyridin-3-yl]oxy}piperidin-1-yl)carbonyl]propyl}quinoxaline-2-carboxamide]  5.5 nM
7. CC(C)[C@H](NC(=O)c1nc2ccccc2nc1O)C(=O)N1CCC(C(=O)c2ccc(F)cc2)CC1 [Example 61, N-[(1S)-1-{[4-(4-Fluorobenzoyl)piperidin-1-yl]carbonyl}-2-methylpropyl]-3-hydroxyquinoxaline-2-carboxamide]  5.1 nM
8. CC(C)[C@H](NC(=O)c1nc2ccccc2nc1O)C(=O)N1CCC(C(O)c2ccc(F)cc2F)CC1 (stereo partly drawn) [Example 99, N-[(1S)-1-({4-[(2,4-Difluorophenyl)(hydroxy)methyl]piperidin-1-yl}carbonyl)-2-methylpropyl]-3-hydroxyquinoxaline-2-carboxamide]  4.9 nM
9. CC(C)[C@H](NC(=O)c1nc2ccccc2nc1O)C(=O)N1CCC(Oc2cnc(-c3ccccc3)nc2)CC1 [Example 81, 3-Hydroxy-N-[(1S)-2-methyl-1-({4-[(2-phenylpyrimidin-5-yl)oxy]piperidin-1-yl}carbonyl)propyl]quinoxaline-2-carboxamide]  4.6 nM
10. CC(C)[C@H](NC(=O)c1nc2ccccc2nc1O)C(=O)N1CCC(Oc2ncc(Br)cn2)C(C)(C)C1 (stereo partly drawn) [Example 82, N-[(1S)-1-({4-[(5-Bromopyrimidin-2-yl)oxy]-3,3-dimethylpiperidin-1-yl}carbonyl)-2-methylpropyl]-3-hydroxyquinoxaline-2-carboxamide]  4.6 nM
11. CC(C)[C@H](NC(=O)c1nc2ccccc2nc1O)C(=O)N1CCC(Oc2cnc(N3CCCCC3)nc2)CC1 [Example 97, 3-Hydroxy-N-[(1S)-2-methyl-1-({4-[(2-piperidin-1-ylpyrimidin-5-yl)oxy]piperidin-1-yl}carbonyl)propyl]quinoxaline-2-carboxamide]  4.5 nM
12. CC(C)[C@H](NC(=O)c1nc2ccccc2nc1O)C(=O)N1CCC(Oc2ncc(F)cc2F)CC1 [Example 49, N-[(1S)-1-({4-[(3,5-Difluoropyridin-2-yl)oxy]piperidin-1-yl]carbonyl)-2-methylpropyl}-3-hydroxyquinoxaline-2-carboxamide]  4.3 nM
13. Cc1nc2ccc(OC3CCN(C(=O)[C@@H](NC(=O)c4nc5ccccc5nc4O)C(C)C)CC3)cc2s1 [Example 91, 3-Hydroxy-N-[(1S)-2-methyl-1-({4-[(2-methyl-1,3-benzothiazol-6-yl)oxy]piperidin-1-yl}carbonyl)propyl]quinoxaline-2-carboxamide]  3.8 nM
14. CC(C)[C@H](NC(=O)c1nc2ccccc2nc1O)C(=O)N1CCC(Oc2ccc(C(F)(F)F)cc2)CC1 [Example 62, 3-Hydroxy-N-[(1S)-2-methyl-1-({4-[4-(trifluoromethyl)phenoxy]piperidin-1-yl}carbonyl)propyl]quinoxaline-2-carboxamide]  3.6 nM
15. CC(C)[C@H](NC(=O)c1nc2ccccc2nc1O)C(=O)N1CCC(C(=O)c2ccc(F)cc2F)CC1 [Example 98, N-[(1S)-1-{[4-(2,4-Difluorobenzoyl)piperidin-1-yl]carbonyl}-2-methylpropyl]-3-hydroxyquinoxaline-2-carboxamide]  3.5 nM
16. CC(C)(O)[C@H](NC(=O)c1nc2ccccc2nc1O)C(=O)N1CCC(Oc2ccc(F)cc2)CC1 [Example 69, N-[(1S)-1-{[4-(4-Fluorophenoxy)piperidin-1-yl]carbonyl}-2-hydroxy-2-methylpropyl]-3-hydroxyquinoxaline-2-carboxamide]  3.4 nM
17. CC(C)[C@H](NC(=O)c1nc2ccccc2nc1O)C(=O)N1CCC(Oc2ncc(C(F)(F)F)cn2)CC1 [Example 94, 3-Hydroxy-N-{(1S)-2-methyl-1-[(4-{[5-(trifluoromethyl)pyrimidin-2-yl]oxy}piperidin-1-yl)carbonyl]propyl}quinoxaline-2-carboxamide]  2.7 nM
18. CC(C)[C@H](NC(=O)c1nc2ccccc2nc1O)C(=O)N1CCC(C(=O)c2ccc(F)cc2O)CC1 [Example 67, N-[(1S)-1-{[4-(4-Fluoro-2-hydroxybenzoyl)piperidin-1-yl]carbonyl}-2-methylpropyl]-3-hydroxyquinoxaline-2-carboxamide]  0.75 nM
19. COc1ccc(OC2CCN(C(=O)[C@@H](NC(=O)c3nc4ccccc4nc3O)C(C)C)CC2)cn1 [Example 86, 3-Hydroxy-N-[(1S)-1-({4-[(6-methoxypyridin-3-yl)oxy]piperidin-1-yl}carbonyl)-2-methylpropyl]quinoxaline-2-carboxamide]  0.7 nM
